Test results taken from patent publication US20250215039A1, “NUCLEOSIDES FOR TREATING CANCER” (PRIMEFOUR THERAPEUTICS, INC., priority 2022, published 2025).
Read-outs that look alike come from different tables or passages of the source.

Test system: cancer cell lines
Test: Cancer cell proliferation activity (CellTiterGlo, 72 h)
Assay type: cell-based
Conditions: 72 h, 72 h, read-out: IC50 cell proliferation
Summary of the method: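 Readout is CellTiterGlo luminescence after 72 h compound exposure (0.1% DMSO final), started one day post-seeding, at 37 °C.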

Q: With C[C@]1(CO)O[C@@H](n2ccc(N)nc2=O)[C@@H](O)[C@@H]1O [Cpd. No. 193, 4-amino-1-((2R,3S,4S,5R)-3,4-dihydroxy-5-(hydroxymethyl)-5-methyltetrahydrofuran-2-yl)pyrimidin-2(1H)-one] as the compound, how does the IC50 (5637 (bladder)) read?
A: Its IC50 is over 50 µM.

Q: And the IC50 (CLS439 (bladder))?
A: Its IC50 is over 50 µM.

Q: And the IC50 (HS729 (muscle))?
A: Its IC50 is 5.86 µM.

Q: And the IC50 (J82 (bladder))?
A: The IC50 was 5.54 µM.

Q: And the IC50 (JAR (placenta))?
A: The IC50 was over 50 µM.

Q: What about the IC50 (MT3 (breast)) of the same compound?
A: The IC50 was 0.58 µM.

Q: And the IC50 (PANCI (pancreas))?
A: The IC50 was 3.6 µM.

Q: And the IC50 (PC3 (prostate))?
A: The IC50 was 2.04 µM.

Q: And the IC50 (RD (muscle))?
A: The IC50 was over 50 µM.

Q: What about the IC50 (T24 (bladder)) of the same compound?
A: The IC50 was 2.32 µM.

Q: What about the IC50 (Homo sapiens, 22Rv1, 72 h, 22RV1 (prostate)) of the same compound?
A: Its IC50 is 5.77 µM.

Q: And the IC50 (Homo sapiens, 786-0, 72 h, 786O (kidney))?
A: The IC50 was 9.53 µM.

Q: What about the IC50 (Homo sapiens, A204, 72 h, A204 (muscle)) of the same compound?
A: The IC50 was 0.06 µM.

Q: What about the IC50 (Homo sapiens, A549, 72 h, A549 (lung)) of the same compound?
A: Its IC50 is 2.32 µM.

Q: And the IC50 (Homo sapiens, A673, 72 h, A673 (bone))?
A: The IC50 was 3.26 µM.

Q: What about the IC50 (Homo sapiens, A2780, 72 h, A2780 (ovary)) of the same compound?
A: The IC50 was 3.47 µM.

Q: What about the IC50 (Homo sapiens, A-375, 72 h, A375 (skin)) of the same compound?
A: The IC50 was 3.61 µM.

Q: And the IC50 (Homo sapiens, A-431, 72 h, A431 (skin))?
A: The IC50 was 2.52 µM.

Q: What about the IC50 (Homo sapiens, ACHN, ACHN (kidney)) of the same compound?
A: Its IC50 is 2.82 µM.

Q: And the IC50 (Homo sapiens, ASPC1, 72 h, ASPC1 (pancreas))?
A: Its IC50 is over 50 µM.

Q: And the IC50 (Homo sapiens, BT-20, 72 h, BT20 (breast))?
A: Its IC50 is 3.06 µM.

Q: What about the IC50 (Homo sapiens, BXPC-3, 72 h, BXPC3 (pancreas)) of the same compound?
A: Its IC50 is 4.27 µM.

Q: And the IC50 (Homo sapiens, C-33-A, C33A (endometrial))?
A: Its IC50 is 1.46 µM.

Q: And the IC50 (Homo sapiens, CAKI-1, 72 h, CAKI1 (kidney))?
A: Its IC50 is 1.58 µM.

Q: And the IC50 (Homo sapiens, COLO 205, 72 h, COLO205 (colon))?
A: The IC50 was 1.57 µM.

Q: What about the IC50 (Homo sapiens, COLO-678, 72 h, COLO678 (colon)) of the same compound?
A: The IC50 was over 50 µM.

Q: What about the IC50 (Homo sapiens, Ca-Ski, CASKI (endometrial)) of the same compound?
A: The IC50 was 3.06 µM.

Q: And the IC50 (Homo sapiens, Caco-2, 72 h, CACO2 (colon))?
A: The IC50 was over 50 µM.

Q: What about the IC50 (Homo sapiens, Calu-6, 72 h, CALU6 (lung)) of the same compound?
A: The IC50 was 3.82 µM.

Q: And the IC50 (Homo sapiens, DLD-1, 72 h, DLD1 (colon))?
A: Its IC50 is 4.02 µM.

Q: And the IC50 (Homo sapiens, DU-145, 72 h, DU145 (prostate))?
A: The IC50 was 1.4 µM.

Q: What about the IC50 (Homo sapiens, EFO-21, 72 h, EFO21 (ovary)) of the same compound?
A: Its IC50 is 4.59 µM.

Q: What about the IC50 (Homo sapiens, EJ-28, 72 h, EJ28 (bladder)) of the same compound?
A: The IC50 was 4.43 µM.

Q: And the IC50 (Homo sapiens, Granta-519, 72 h, GRANTA-519 (hematological))?
A: Its IC50 is 0.89 µM.

Q: What about the IC50 (Homo sapiens, HCT-15, 72 h, HCT15 (colon)) of the same compound?
A: The IC50 was 2.14 µM.

Q: What about the IC50 (Homo sapiens, HCT-116, 72 h, HCT116 (colon)) of the same compound?
A: Its IC50 is 2.79 µM.

Q: What about the IC50 (Homo sapiens, HEK293, 72 h, HEK293 (kidney)) of the same compound?
A: The IC50 was over 50 µM.

Q: What about the IC50 (Homo sapiens, HL-60, 72 h, HL-60 (hematological)) of the same compound?
A: Its IC50 is 1.63 µM.

Q: And the IC50 (Homo sapiens, HT-29, 72 h, HT29 (colon))?
A: Its IC50 is over 50 µM.

Q: And the IC50 (Homo sapiens, HT-1080, 72 h, HT1080 (connective tissue))?
A: Its IC50 is 2.78 µM.

Q: What about the IC50 (Homo sapiens, HeLa, HELA (endometrial)) of the same compound?
A: Its IC50 is over 50 µM.

Q: And the IC50 (Homo sapiens, HepG2, 72 h, HEPG2 (liver))?
A: Its IC50 is 3.57 µM.

Q: And the IC50 (Homo sapiens, Hs-578T, HS578T (breast))?
A: Its IC50 is over 50 µM.

Q: And the IC50 (Homo sapiens, IGROV-1, 72 h, IGROV1 (ovary))?
A: Its IC50 is 2.14 µM.

Q: What about the IC50 (Homo sapiens, IMR-90, 72 h, IMR90 (lung)) of the same compound?
A: Its IC50 is 4.16 µM.

Q: What about the IC50 (Homo sapiens, JEG-3, 72 h, JEG3 (placenta)) of the same compound?
A: Its IC50 is over 50 µM.

Q: What about the IC50 (Homo sapiens, JIMT-1, 72 h, JIMT1 (breast)) of the same compound?
A: The IC50 was 2.82 µM.

Q: What about the IC50 (Homo sapiens, K562, 72 h, K-562 (hematological)) of the same compound?
A: The IC50 was over 50 µM.

Q: What about the IC50 (Homo sapiens, Kasumi 1, 72 h, KASUMI-1 (hematological)) of the same compound?
A: The IC50 was 0.37 µM.

Q: And the IC50 (Homo sapiens, L-363, 72 h, L-363 (hematological))?
A: The IC50 was over 50 µM.

Q: And the IC50 (Homo sapiens, LoVo, LOVO (colon))?
A: The IC50 was 2.33 µM.

Q: What about the IC50 (Homo sapiens, MCF7, 72 h, MCF7 (breast)) of the same compound?
A: Its IC50 is over 50 µM.

Q: What about the IC50 (Homo sapiens, MDA-MB-231, 72 h, MDAMB231 (breast)) of the same compound?
A: Its IC50 is 1.45 µM.

Q: And the IC50 (Homo sapiens, MDA-MB-435, 72 h, MDAMB435 (skin))?
A: Its IC50 is 4.74 µM.

Q: What about the IC50 (Homo sapiens, MDA-MB-436, 72 h, MDAMB436 (breast)) of the same compound?
A: Its IC50 is over 50 µM.

Q: What about the IC50 (Homo sapiens, MDA-MB-468, 72 h, MDAMB468 (breast)) of the same compound?
A: The IC50 was over 50 µM.

Q: And the IC50 (Homo sapiens, MG-63, 72 h, MG63 (bone))?
A: The IC50 was over 50 µM.

Q: What about the IC50 (Homo sapiens, MHH-ES-1, 72 h, MHHES1 (bone)) of the same compound?
A: Its IC50 is 2.26 µM.

Q: What about the IC50 (Homo sapiens, MIA PaCa-2, 72 h, MIAPACA2 (pancreas)) of the same compound?
A: Its IC50 is over 50 µM.

Q: What about the IC50 (Homo sapiens, MINO, MINO (hematological)) of the same compound?
A: The IC50 was 0.25 µM.

Q: What about the IC50 (Homo sapiens, MV4-11, 72 h, MV4-11 (hematological)) of the same compound?
A: The IC50 was 4.77 µM.

Q: What about the IC50 (Homo sapiens, NCI-H23, 72 h, NCI-H23 (lung)) of the same compound?
A: The IC50 was 7.88 µM.

Q: And the IC50 (Homo sapiens, NCI-H82, 72 h, NCIH82 (lung))?
A: Its IC50 is 3.37 µM.

Q: And the IC50 (Homo sapiens, NCI-H292, 72 h, NCIH292 (lung))?
A: The IC50 was 5.76 µM.

Q: And the IC50 (Homo sapiens, NCI-H460, 72 h, NCIH460 (lung))?
A: Its IC50 is 2.83 µM.

Q: What about the IC50 (Homo sapiens, OVCAR-3, 72 h, OVCAR3 (ovary)) of the same compound?
A: The IC50 was 2.75 µM.

Q: And the IC50 (Homo sapiens, OVCAR-4, 72 h, OVCAR4 (ovary))?
A: The IC50 was over 50 µM.

Q: And the IC50 (Homo sapiens, PLC-PRF-5, 72 h, PLCPRF5 (liver))?
A: The IC50 was over 50 µM.

Q: And the IC50 (Homo sapiens, Panc1005, 72 h, PANC1005 (pancreas))?
A: The IC50 was over 50 µM.

Q: And the IC50 (Homo sapiens, Ramos, RAMOS (hematological))?
A: Its IC50 is 3.01 µM.

Q: What about the IC50 (Homo sapiens, SAOS-2, 72 h, SAOS2 (bone)) of the same compound?
A: The IC50 was 1.12 µM.

Q: And the IC50 (Homo sapiens, SF-268, 72 h, SF268 (brain))?
A: The IC50 was 2.77 µM.

Q: What about the IC50 (Homo sapiens, SF-295, 72 h, SF295 (brain)) of the same compound?
A: The IC50 was over 50 µM.

Q: And the IC50 (Homo sapiens, SK-BR-3, 72 h, SKBR3 (breast))?
A: The IC50 was 3.5 µM.

Q: And the IC50 (Homo sapiens, SK-HEP1, 72 h, SKHEP1 (liver))?
A: Its IC50 is 2.9 µM.

Q: What about the IC50 (Homo sapiens, SK-LMS-1, 72 h, SKLMS1 (uterus)) of the same compound?
A: Its IC50 is over 50 µM.

Q: What about the IC50 (Homo sapiens, SK-MEL-5, 72 h, SKMEL5 (skin; SKMELS [sic] in Table 9E)) of the same compound?
A: The IC50 was over 50 µM.

Q: And the IC50 (Homo sapiens, SK-MEL-28, 72 h, SKMEL28 (skin))?
A: Its IC50 is over 50 µM.

Q: And the IC50 (Homo sapiens, SK-N-AS, SKNAS (brain))?
A: Its IC50 is 6.05 µM.

Q: What about the IC50 (Homo sapiens, SK-N-SH, SKNSH (brain)) of the same compound?
A: The IC50 was 4.78 µM.

Q: And the IC50 (Homo sapiens, SK-OV-3, 72 h, SKOV3 (ovary))?
A: The IC50 was over 50 µM.

Q: What about the IC50 (Homo sapiens, SNB-75, 72 h, SNB75 (brain)) of the same compound?
A: The IC50 was 4.46 µM.

Q: And the IC50 (Homo sapiens, SU-DHL10, 72 h, SU-DHL-10 (hematological))?
A: Its IC50 is 3.24 µM.

Q: And the IC50 (Homo sapiens, SU-DHL-6, 72 h, SU-DHL-6 (hematological))?
A: Its IC50 is 2.94 µM.

Q: And the IC50 (Homo sapiens, SW-620, 72 h, SW620 (colon))?
A: The IC50 was over 50 µM.

Q: What about the IC50 (Homo sapiens, TE-671, 72 h, TE671 (muscle)) of the same compound?
A: The IC50 was 4.85 µM.

Q: What about the IC50 (Homo sapiens, THP-1, 72 h, THP-1 (hematological)) of the same compound?
A: Its IC50 is 2.96 µM.

Q: And the IC50 (Homo sapiens, U2OS, U20S (bone; U2OS in Table 9E))?
A: Its IC50 is over 50 µM.

Q: What about the IC50 (Homo sapiens, U-87 MG, U87MG (brain)) of the same compound?
A: Its IC50 is 1.06 µM.

Q: And the IC50 (Homo sapiens, UMUC3, 72 h, UMUC3 (bladder))?
A: The IC50 was 4.2 µM.

Q: What about the IC50 (Homo sapiens, UO-31, 72 h, UO31 (kidney)) of the same compound?
A: The IC50 was 3.89 µM.

Q: What about the IC50 (Homo sapiens, WSU-NHL, WSU-NHL (hematological)) of the same compound?
A: The IC50 was 0.49 µM.

Q: And the IC50 (NCI-H358M, NCIH358M (lung))?
A: The IC50 was 2.52 µM.

Q: And the IC50 (PBMC, PBMC (hematological))?
A: The IC50 was over 50 µM.

Q: And the IC50 (RD-ES, RDES (bone))?
A: The IC50 was over 50 µM.
